The values that follow come from ChEMBL document CHEMBL1201862, “PubChem BioAssay data set” (2004).

Among the test systems are BT-549; LOX IMVI; ACHN; NCI-H522; HT-29; UACC-257; NCI-H460; PC-3; SF-268; HCT-15; MDA-MB-435; SK-MEL-5; IGROV-1; UACC-62; EKVX; K562; Hs-578T; 786-0; UO-31; T47D.
What all share (experiment): NCI tumour cell line growth inhibition, 48 h

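These data come from cells grown in 96-well plates and exposed to compound for 48 hours at five concentrations. Here, GI50 denotes the concentration required for 50% inhibition of growth.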 Calls of active or inactive are those of the source. Rule as the data show it: active = GI50 up to about 1.1 µM and inactive = higher. Where only a bound is given, the exact number is not on record here.

As to `OC(C1CCCCCCCCCC1)C(O)C1CCCCCCCCCC1` (stereo not given), the GI50 was > 100 µM (inactive) in the assay with BT-549; > 100 µM (inactive) in the assay with LOX IMVI; > 100 µM (inactive) with ACHN; 61 µM (inactive) with NCI-H522; > 100 µM (inactive) in the assay on HT-29; > 100 µM (inactive) with UACC-257. Also, the GI50 in the assay with NCI-H460 was > 100 µM (inactive); in the assay with PC-3 it was > 100 µM (inactive); in the assay on SF-268, > 100 µM (inactive); in the assay on HCT-15, more than 100 µM; in the assay on MDA-MB-435 it was > 100 µM (inactive); in the assay with SK-MEL-5, > 100 µM (inactive). The GI50 in the assay on IGROV-1 is > 100 µM (inactive); in the assay with UACC-62, > 100 µM (inactive); in the assay on EKVX, > 100 µM (inactive); with K562 it was 55.1 µM (inactive); in the assay with Hs-578T, > 100 µM (inactive); with 786-0, > 100 µM (inactive). The GI50 in the assay on UO-31 and with T47D was > 100 µM (inactive) in each case.

With `Oc1cc(CF)nc(S)n1`, the GI50 in the assay on BT-549, in the assay on LOX IMVI, in the assay on ACHN, in the assay on NCI-H522, with HT-29 and in the assay on UACC-257 was > 100 µM (inactive) throughout. The GI50 in the assay on NCI-H460 is > 100 µM (inactive); in the assay on PC-3, > 100 µM (inactive); with SF-268, > 100 µM (inactive); with HCT-15, more than 100 µM; with MDA-MB-435 it was > 100 µM (inactive); with SK-MEL-5, > 100 µM (inactive). Further, the GI50 with IGROV-1, in the assay with UACC-62, in the assay with EKVX, with K562, in the assay with Hs-578T and with 786-0 was > 100 µM (inactive) each time. The GI50 in the assay with UO-31 and in the assay with T47D was > 100 µM (inactive) each time.

For the compound `C=C(CN(C)C)C(=O)c1cc(C)ccc1C`, the GI50 was 10.2 µM (inactive) in the assay with BT-549; 4.84 µM (inactive) with LOX IMVI; 3.54 µM (inactive) with ACHN; 0.843 µM (active) with NCI-H522; 11 µM (inactive) in the assay on HT-29; 7.96 µM (inactive) with UACC-257. Moreover, the GI50 is 19.9 µM (inactive) in the assay with NCI-H460; 14.1 µM (inactive) in the assay on PC-3; 20.3 µM (inactive) in the assay with SF-268; 4.13 µM with HCT-15; 8.45 µM (inactive) in the assay with MDA-MB-435; 13.3 µM (inactive) with SK-MEL-5. Also, the GI50 was 18 µM (inactive) in the assay on IGROV-1; 10.5 µM (inactive) in the assay with UACC-62; 26.2 µM (inactive) in the assay on EKVX; 0.791 µM (active) with K562; 28.7 µM (inactive) in the assay with Hs-578T; 2.96 µM (inactive) with 786-0. Also, the values for the GI50 with UO-31 and in the assay on T47D were 6.87 µM (inactive) and 4.11 µM (inactive), respectively.
